# Data published in patent US8476064B2, “Inhibition assay method and device for detection of antibiotics” (Charm Sciences, Inc., priority 2006, dated 2013).
# Tests used:
# [1] = tested on: B.st. spores; assay: Antibiotic detection test in spiked milk, borate/succinate culture of Example 6 (Table 4); type: cell-based, Bacillus (Geobacillus) Stearothermophilus; parameters: key to Color 1 / Color 2: Color result 1 and 2 is a negative result; Color result 1 and 2 is a negative result; 3 is a borderline result; 4 and 5 is a positive result; 4 and 5 is a positive result; details: for % Pos (Color 2) / Color 2: after 16 hours at room temperature; for % Pos (Color 1) / Color 1: immediately after test completion
# Method: BCP/Borate/Succinate Solution was prepared by adding 3.8 grams of Borate and 6 grams Succinate to 100 mL of reverse osmosis/deionized water (RO/DI Water) in 125 mL flask. 50 milligrams of BCP was added to a 50 mL conical tube and 5 mL of Borate/Succinate solution was added to the 50 milligrams BCP and mixed.
# To prepare media 5 grams glucose and 1 gram Mueller Hinton Broth was dissolved in 100 mL RO/DI Water. 1.2 mL of a 0.01 mg/mL solution of trimethoprim in RO/DI Water was prepared and added to the media. A 20 mL of BCP/Borate/Succinate was added to the media and the media was sterile filtered through a 0.45 micron filter and then cooled to 4 degrees C.
# Agar was prepared by combining 0.3 grams Difco Bacto-Agar (Item #0140-01), 0.225 NaCl and 17.485 RO/DI Water. The mixture was heated to 95° C. and then removed from the heat and allowed to cool to 75° C. Next 6 mL of media (prepared as described above with BCP/Tris) was added to the agar and mixed for 5 minutes. The mixture was cooled to 57° C. and 1 mL spore solution (concentration of 1 billion cfu/mL) was added and mixed together for 5 minutes. 0.200 mL was dispensed into the bottom of each of the vials.
# In test operation 200 microliters of various milk sample, spiked with known concentrations of antibiotics, were pipetted into test vials and incubated for the prescribed time (in this test 2 hours 10 minutes) and prescribed temperature (64 degrees C.+/−2 degrees C.). Incubation was in the Charm I Inctronic incubator. Results were recorded immediately after test completion (Color 1) and after being left at room temperature for 16 hours (Color 2). Results listed are in parts per billion (ppb). 4 samples were run at each concentrations except for raw negative milk (16 samples) and 3 ppb pen G (2 samples) and amoxicillin (2 samples). Abbreviations are penicillin G (PenG); sulfamethazine (SMZ); sulfadimethoxine (SDM); tylosin (TY); gentamicin (G); oxytetracycline (OT); pirlimycin (Pirl); amoxicillin (Amox); ampicillin (Amp); cloxacillin (Clox); ceftiofur sodium (Ceft); cephaprin (Ceph); tilmicosin (Til); sulfadoxine (SDN); neomycin (Neo). Color result 1 and 2 is a negative result, 3 is a borderline result and 4 and 5 is a positive result.
# [2] = tested on: B.st. spores; assay: Single service kidney swab microbial growth inhibition test, culture of Example 1, with or without beta-lactam receptor; type: cell-based, Bacillus (Geobacillus) Stearothermophilus; details: 12.5 ppb penicillin G; Receptor added dried on swab
compound,measurement,setting,value
"CN(C)[C@@H]1C(O)=C(C(N)=O)C(=O)[C@@]2(O)C(O)=C3C(=O)c4c(O)cccc4[C@@](C)(O)[C@H]3[C@H](O)[C@@H]12 [OT, oxytetracycline]",% Pos (Color 2),[1]; milk spiked at 200 ppb,0%
same,Color 2,[1]; milk spiked at 200 ppb,2
same,% Pos (Color 1),[1]; milk spiked at 200 ppb,0%
same,Color 1,[1]; milk spiked at 200 ppb,2
same,% Pos (Color 2),[1]; milk spiked at 300 ppb,100%
same,Color 2,[1]; milk spiked at 300 ppb,4
same,% Pos (Color 1),[1]; milk spiked at 300 ppb,100%
same,Color 1,[1]; milk spiked at 300 ppb,5
"CC1(C)S[C@@H]2[C@H](NC(=O)Cc3ccccc3)C(=O)N2[C@H]1C(=O)O [PenG, penicillin G]",% Pos (Color 2),[1]; milk spiked at 3 ppb,100%
same,Color 2,[1]; milk spiked at 3 ppb,5
same,% Pos (Color 1),[1]; milk spiked at 3 ppb,100%
same,Color 1,[1]; milk spiked at 3 ppb,5
same,% Pos (Color 2),[1]; milk spiked at 4 ppb,100%
same,Color 2,[1]; milk spiked at 4 ppb,5
same,% Pos (Color 1),[1]; milk spiked at 4 ppb,100%
same,Color 1,[1]; milk spiked at 4 ppb,5
same,test result,[2],−
"COc1cc(NS(=O)(=O)c2ccc(N)cc2)nc(OC)n1 [SDM, sulfadimethoxine]",% Pos (Color 2),[1]; milk spiked at 25 ppb,100%
same,Color 2,[1]; milk spiked at 25 ppb,5
same,% Pos (Color 1),[1]; milk spiked at 25 ppb,100%
same,Color 1,[1]; milk spiked at 25 ppb,4
same,% Pos (Color 2),[1]; milk spiked at 50 ppb,100%
same,Color 2,[1]; milk spiked at 50 ppb,5
same,% Pos (Color 1),[1]; milk spiked at 50 ppb,100%
same,Color 1,[1]; milk spiked at 50 ppb,5
"Cc1cc(C)nc(NS(=O)(=O)c2ccc(N)cc2)n1 [SMZ, sulfamethazine]",% Pos (Color 2),[1]; milk spiked at 100 ppb,100%
same,Color 2,[1]; milk spiked at 100 ppb,5
same,% Pos (Color 1),[1]; milk spiked at 100 ppb,100%
same,Color 1,[1]; milk spiked at 100 ppb,5
same,% Pos (Color 2),[1]; milk spiked at 200 ppb,100%
same,Color 2,[1]; milk spiked at 200 ppb,4
same,% Pos (Color 1),[1]; milk spiked at 200 ppb,100%
same,Color 1,[1]; milk spiked at 200 ppb,5
"CC[C@H]1OC(=O)C[C@@H](O)[C@H](C)[C@@H](O[C@@H]2O[C@H](C)[C@@H](O[C@H]3C[C@@](C)(O)[C@@H](O)[C@H](C)O3)[C@H](N(C)C)[C@H]2O)[C@@H](CC=O)C[C@@H](C)C(=O)/C=C/C(C)=C/[C@@H]1CO[C@@H]1O[C@H](C)[C@@H](O)[C@@H](OC)[C@H]1OC [TY, tylosin]",% Pos (Color 2),[1]; milk spiked at 40 ppb,100%
same,Color 2,[1]; milk spiked at 40 ppb,4
same,% Pos (Color 1),[1]; milk spiked at 40 ppb,100%
same,Color 1,[1]; milk spiked at 40 ppb,5
same,% Pos (Color 2),[1]; milk spiked at 50 ppb,100%
same,Color 2,[1]; milk spiked at 50 ppb,5
same,% Pos (Color 1),[1]; milk spiked at 50 ppb,100%
same,Color 1,[1]; milk spiked at 50 ppb,5
gentamicin,% Pos (Color 2),[1]; milk spiked at 300 ppb,100%
same,Color 2,[1]; milk spiked at 300 ppb,4
same,% Pos (Color 1),[1]; milk spiked at 300 ppb,100%
same,Color 1,[1]; milk spiked at 300 ppb,4
same,% Pos (Color 2),[1]; milk spiked at 400 ppb,100%
same,Color 2,[1]; milk spiked at 400 ppb,5
same,% Pos (Color 1),[1]; milk spiked at 400 ppb,100%
same,Color 1,[1]; milk spiked at 400 ppb,5
